Calls of active or inactive are those of the source. The rule behind the calls is not given here.
Key:
[1] = molecular target: T1, Muscarinic acetylcholine receptor M3 (Homo sapiens, UniProt P20309); experiment: Antagonist activity at human recombinant muscarinic M3 receptor expressed in CHO cells assessed as inhibition of acetylcholine-induced calcium mobilization by FLIPR based single concentration kinetic assay; assay type: functional, cell-based; details: read-out: pA2 (converted)
[2] = Permeability across artificial phospholipid membrane at pH 7.05 by HPLC; assay type: ADME; details: not told, read-out: permeability
[3] = molecular target: T1, Muscarinic acetylcholine receptor M3; experiment: Antagonist activity at human recombinant muscarinic M3 receptor expressed in CHO cells assessed as inhibition of acetylcholine-induced calcium mobilization by FLIPR assay; assay type: functional, cell-based
Mus musculus = experiment: Inhibition of methacholine-induced bronchoconstriction in intranasally dosed BALB/c mouse assessed as enhanced pause pretreated before methacholine challenge; assay type: functional, organism-based
[4] = molecular target: T2, Muscarinic acetylcholine receptor M1 (Homo sapiens, UniProt P11229); experiment: Antagonist activity at human recombinant muscarinic M1 receptor expressed in CHO cells assessed as inhibition of acetylcholine-induced calcium mobilization by FLIPR assay; assay type: functional, cell-based; details: read-out: pA2 (converted)
T2 sequence (P11229 whole entry): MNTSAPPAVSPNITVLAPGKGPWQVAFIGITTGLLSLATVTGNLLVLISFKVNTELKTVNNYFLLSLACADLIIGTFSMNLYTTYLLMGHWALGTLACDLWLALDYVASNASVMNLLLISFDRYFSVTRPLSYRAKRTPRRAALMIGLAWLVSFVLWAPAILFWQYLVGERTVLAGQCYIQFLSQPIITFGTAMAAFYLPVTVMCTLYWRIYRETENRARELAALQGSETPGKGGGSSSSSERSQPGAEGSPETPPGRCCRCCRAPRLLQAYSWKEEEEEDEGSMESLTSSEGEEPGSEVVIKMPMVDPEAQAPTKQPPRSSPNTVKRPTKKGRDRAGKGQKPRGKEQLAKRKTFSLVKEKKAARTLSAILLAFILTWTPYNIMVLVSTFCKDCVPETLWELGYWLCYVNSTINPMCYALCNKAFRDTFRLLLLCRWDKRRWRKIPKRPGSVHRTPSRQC

T1 sequence (P20309 whole entry): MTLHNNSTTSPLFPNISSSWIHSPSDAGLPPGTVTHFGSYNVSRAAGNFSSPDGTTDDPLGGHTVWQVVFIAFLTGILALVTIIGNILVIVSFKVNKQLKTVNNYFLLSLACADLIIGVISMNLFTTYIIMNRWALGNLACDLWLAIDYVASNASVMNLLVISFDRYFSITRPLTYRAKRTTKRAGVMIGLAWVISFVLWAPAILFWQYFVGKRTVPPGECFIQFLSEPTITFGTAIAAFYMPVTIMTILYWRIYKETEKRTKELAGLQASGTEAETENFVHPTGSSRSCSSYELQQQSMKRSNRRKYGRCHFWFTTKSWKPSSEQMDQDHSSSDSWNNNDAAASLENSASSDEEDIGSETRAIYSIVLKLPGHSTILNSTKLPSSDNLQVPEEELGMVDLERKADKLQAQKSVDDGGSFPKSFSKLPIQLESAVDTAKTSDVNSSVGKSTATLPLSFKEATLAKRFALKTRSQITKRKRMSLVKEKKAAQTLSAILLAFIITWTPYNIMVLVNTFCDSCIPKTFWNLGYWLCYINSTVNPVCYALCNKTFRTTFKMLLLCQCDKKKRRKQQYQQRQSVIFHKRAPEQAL

Row | IC50 [3] [nM] | SMILES | other results
1 | – | C[C@H]1CN(Cc2cccc(-c3cc(CNC(=O)c4cccc(CN5CC[N+](C)(C)CC5)c4)ccc3F)c2)CCN1.[I-] | Kb [1]: 0.158 nM; Papp [2]: < 0.3 ×10⁻⁶ cm/s
2 | 50.1 | O=C(NCc1cccc(-c2cccc(CN3CCNCC3)c2)c1)c1cccc(C(F)(F)F)c1 | –
3 | 251 | O=S(=O)(NCc1cccc(-c2cccc(CN3CCNCC3)c2)c1)c1ccc2c(c1)OCO2 | –
4 | 251 | O=C(NCc1cc(-c2cccc(CN3CCNCC3)c2)ccc1F)c1ccc2c(c1)OCO2 | –
5 | > 10000 | O=C1CN(Cc2cccc(-c3cccc(CNC(=O)c4ccc5c(c4)OCO5)c3)c2)CCN1 | –
6 | – | C[C@H]1CN(Cc2cccc(-c3cc(CNC(=O)c4cccc(CC5CCNCC5)c4)ccc3F)c2)CCN1 | inhibition (Mus musculus): Active; Kb [4]: 0.2 nM
7 | > 10000 | O=C(NCc1cccc(-c2cccc(CN3CCOCC3)c2)c1)c1ccc2c(c1)OCO2 | –
8 | – | C[C@H]1CN(Cc2cccc(-c3cc(CNC(=O)c4cccc(CN5CCN(CCCO)CC5)c4)ccc3F)c2)CCN1 | Kb [1]: 0.0631 nM
9 | 631 | CN1CCCN(Cc2cccc(-c3cccc(CNC(=O)c4ccc5c(c4)OCO5)c3)c2)CC1 | –
10 | – | C[C@H]1CN(Cc2cccc(-c3cc(CNC(=O)c4cccc(CN(C)CCCN(C)C)c4)ccc3F)c2)CCN1 | Kb [1]: 0.2 nM
11 | 7940 | O=C(NCc1cccc(-c2cccc(CN3CCNCC3)c2)c1)Nc1ccc2c(c1)OCO2 | –
12 | 316 | N#Cc1ccccc1C(=O)NCc1cccc(-c2cccc(CN3CCNCC3)c2)c1 | –
13 | 100 | O=C(NCc1cccc(-c2cccc(CN3CCNCC3)c2)c1)c1cccc(Cl)c1 | –
14 | 5.01 | C[C@H]1CN(Cc2cccc(-c3cccc(CNC(=O)c4ccc5c(c4)OCO5)c3)c2)CCN1 | –
15 | 2510 | C[N+]1(C)CCN(Cc2cccc(-c3cccc(CNC(=O)c4ccc5c(c4)OCO5)c3)c2)CC1 | –
16 | 631 | O=C(NCc1cccc(-c2cccc(CN3CCNCC3)c2)c1)c1ccc(C(F)(F)F)cc1 | –
17 | > 10000 | C[N+]1(Cc2cccc(-c3cccc(CNC(=O)c4ccc5c(c4)OCO5)c3)c2)CCNCC1 | –
18 | – | C[C@H]1CN(Cc2cccc(-c3cc(CNC(=O)c4cccc(CN5CCCN(C)CC5)c4)ccc3F)c2)CCN1 | Kb [1]: 0.251 nM
19 | 10 | CC1CN(Cc2cccc(-c3cccc(CNC(=O)c4ccc5c(c4)OCO5)c3)c2)CCN1 (stereo unspecified) | –
20 | 794 | O=C(NCc1cccc(-c2cccc(CN3CCNCC3)c2)c1)c1cccc(F)c1 | –
21 | 3980 | O=C(NCc1cccc(-c2cccc(CN3CCNCC3)c2)c1)c1ccccc1C(F)(F)F | –
22 | 316 | O=C(NCc1cccc(-c2cccc(CN3CCNCC3)c2)c1)c1ccc(Cl)cc1 | –
23 | – | C[C@H]1CN(Cc2cccc(-c3cc(CNC(=O)c4cccc(CN5CCN(C=O)CC5)c4)ccc3F)c2)CCN1 | Kb [1]: 0.0794 nM

Row | IC50 [3] [nM] | SMILES | other results
24 | 79.4 | COc1cccc(C(=O)NCc2cccc(-c3cccc(CN4CCNCC4)c3)c2)c1 | –
25 | 20 | CS(=O)(=O)c1cccc(C(=O)NCc2cccc(-c3cccc(CN4CCNCC4)c3)c2)c1 | –
26 | 1000 | O=C(NCc1cccc(-c2cccc(CN3CCNCC3)c2)c1)c1ccccc1Cl | –
27 | 2000 | Nc1cccc(C(=O)NCc2cccc(-c3cccc(CN4CCNCC4)c3)c2)c1 | –
28 | 50.1 | C[C@@H]1CN(Cc2cccc(-c3cccc(CNC(=O)c4ccc5c(c4)OCO5)c3)c2)CCN1 | –
29 | 3160 | Cc1ccc(-c2cccc(CN3CCNCC3)c2)cc1CNC(=O)c1ccc2c(c1)OCO2 | –
30 | 200 | CN(C)c1cccc(C(=O)NCc2cccc(-c3cccc(CN4CCNCC4)c3)c2)c1 | –
31 | 79.4 | O=C(NCc1cccc(-c2cccc(CN3C[C@@H]4C[C@H]3CN4)c2)c1)c1ccc2c(c1)OCO2 | –
32 | 79.4 | N#Cc1ccc(C(=O)NCc2cccc(-c3cccc(CN4CCNCC4)c3)c2)cc1 | –
33 | 3980 | CC(=O)N1CCN(Cc2cccc(-c3cccc(CNC(=O)c4ccc5c(c4)OCO5)c3)c2)CC1 | –
34 | 3.98 | CN1CCN(Cc2cccc(C(=O)NCc3cccc(-c4cccc(CN5CCNCC5)c4)c3)c2)CC1 | –
35 | 200 | CC(=O)Nc1cccc(C(=O)NCc2cccc(-c3cccc(CN4CCNCC4)c3)c2)c1 | –
36 | 316 | COc1ccc(-c2cccc(CNC(=O)c3ccc4c(c3)OCO4)c2)cc1CN1CCNCC1 | –
37 | 1260 | O=C(NCc1cccc(-c2cccc(CN3CCNCC3)c2)c1)c1cccc(Oc2ccccc2)c1 | –
38 | > 10000 | Cc1c(CNC(=O)c2ccc3c(c2)OCO3)cccc1-c1cccc(CN2CCNCC2)c1 | –
39 | 5010 | O=C(NCc1cccc(-c2cccc(C(=O)N3CCNCC3)c2)c1)c1ccc2c(c1)OCO2 | –
40 | 501 | COc1ccc(C(=O)NCc2cccc(-c3cccc(CN4CCNCC4)c3)c2)cc1 | –
41 | 10 | CC(=O)c1cccc(C(=O)NCc2cccc(-c3cccc(CN4CCNCC4)c3)c2)c1 | –
42 | – | C[C@H]1CN(Cc2cccc(-c3cc(CNC(=O)c4cccc(CN5CCCCC5)c4)ccc3F)c2)CCN1 | Kb [1]: 0.631 nM
43 | 501 | COc1ccccc1C(=O)NCc1cccc(-c2cccc(CN3CCNCC3)c2)c1 | –
44 | 501 | O=C(NCc1cccc(-c2cccc(CN3CCNCC3)c2)c1)c1cccc(OC(F)(F)F)c1 | –
45 | 1580 | CCN1CCN(Cc2cccc(-c3cccc(CNC(=O)c4ccc5c(c4)OCO5)c3)c2)CC1 | –
46 | 6310 | O=C(NCc1cccc(-c2cccc(CN3CCCCC3)c2)c1)c1ccc2c(c1)OCO2 | –

Row | IC50 [3] [nM] | SMILES | other results
47 | 1260 | COc1ccc(CN2CCNCC2)cc1-c1cccc(CNC(=O)c2ccc3c(c2)OCO3)c1 | –
48 | 6.31 | O=C(NCc1ccc(F)c(-c2cccc(CN3CCNCC3)c2)c1)c1ccc2c(c1)OCO2 | –
49 | 10 | CCOc1cccc(C(=O)NCc2cccc(-c3cccc(CN4CCNCC4)c3)c2)c1 | –
50 | 200 | O=C(NCc1cccc(-c2ccc(F)c(CN3CCNCC3)c2)c1)c1ccc2c(c1)OCO2 | –
51 | 39.8 | C[C@H]1CN(Cc2cccc(-c3cccc(CNC(=O)c4ccc5c(c4)OCO5)c3)n2)CCN1 | –
52 | – | C[C@H]1CN(Cc2cccc(-c3cc(CNC(=O)c4cccc(CN5CCOCC5)c4)ccc3F)c2)CCN1 | Kb [1]: 0.126 nM
53 | – | C[C@H]1CN(Cc2cccc(-c3cc(CNC(=O)c4cccc(CN5CC[N+](C)(Cc6ccccc6)CC5)c4)ccc3F)c2)CCN1 | Kb [1]: 0.0794 nM
54 | – | C[C@H]1CN(Cc2cccc(-c3cc(CNC(=O)c4cccc(CN(C)C)c4)ccc3F)c2)CCN1 | Kb [1]: 3.16 nM
55 | 20 | COC(=O)c1cccc(C(=O)NCc2cccc(-c3cccc(CN4CCNCC4)c3)c2)c1 | –
56 | – | C[C@H]1CN(Cc2cccc(-c3cc(CNC(=O)c4cccc(CN5CC[N+]6(CCCCC6)CC5)c4)ccc3F)c2)CCN1 | Kb [1]: 0.126 nM
57 | 316 | O=C(NCc1cccc(-c2cccc(CN3CCCNCC3)c2)c1)c1ccc2c(c1)OCO2 | –
58 | 6310 | O=C(Nc1cccc(-c2cccc(CN3CCNCC3)c2)c1)c1ccc2c(c1)OCO2 | –
59 | 31.6 | COc1ccc(CNC(=O)c2ccc3c(c2)OCO3)cc1-c1cccc(CN2CCNCC2)c1 | –
60 | 501 | CN1CCN(Cc2cccc(-c3cccc(CNC(=O)c4ccc5c(c4)OCO5)c3)c2)CC1 | –
61 | 2000 | O=C(NCc1cccc(-c2cccc(CN3CCNCC3)c2)c1)c1cccc(O)c1 | –
62 | 251 | Cc1cccc(C(=O)NCc2cccc(-c3cccc(CN4CCNCC4)c3)c2)c1 | –
63 | 501 | C[C@H]1CN(Cc2ccc(-c3cccc(CNC(=O)c4ccc5c(c4)OCO5)c3)s2)CCN1 | –
64 | – | C[C@H]1CN(Cc2cccc(-c3cc(CNC(=O)c4cccc(C[N+]5(C)CCNCC5)c4)ccc3F)c2)CCN1 | Kb [1]: 3.16 nM
65 | 2510 | O=C(NCc1cccc(-c2cccc(CN3CCNCC3)c2)c1F)c1ccc2c(c1)OCO2 | –
66 | – | C[C@H]1CN(Cc2cccc(-c3cc(CNC(=O)c4cccc(CN5CCN(C)CC5)c4)ccc3F)c2)CCN1 | Kb [1]: 0.0316 nM
67 | – | CCC[N+]1(C)CCN(Cc2cccc(C(=O)NCc3ccc(F)c(-c4cccc(CN5CCN[C@@H](C)C5)c4)c3)c2)CC1 | Kb [1]: 0.1 nM
68 | 316 | CCc1cccc(C(=O)NCc2cccc(-c3cccc(CN4CCNCC4)c3)c2)c1 | –
69 | 50.1 | N#Cc1cccc(C(=O)NCc2cccc(-c3cccc(CN4CCNCC4)c3)c2)c1 | –
